Values quoted from earlier work as cited in paper PMC7496964 (Chemistry (Weinheim an Der Bergstrasse, Germany), 2020).

Target: human langerin ECD (Homo sapiens, UniProt Q9UJ71)
Sequence (Q9UJ71 65-328 limits assumed): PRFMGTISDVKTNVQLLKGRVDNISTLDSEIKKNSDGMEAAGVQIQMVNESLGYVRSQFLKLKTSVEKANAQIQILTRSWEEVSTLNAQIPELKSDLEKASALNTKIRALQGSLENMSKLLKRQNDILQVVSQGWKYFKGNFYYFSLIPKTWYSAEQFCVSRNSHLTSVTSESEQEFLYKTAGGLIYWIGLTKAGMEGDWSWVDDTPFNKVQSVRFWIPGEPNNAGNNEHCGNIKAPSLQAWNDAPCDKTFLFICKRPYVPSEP

In the case of 1-α-azido B-trisaccharide [compound 10], the “Langerin affinity (in words), literature” value is given as “weak affinity”.
